Laboratory results reported in paper PMC8286840, “Identifying SARS-CoV-2 antiviral compounds by screening for small molecule inhibitors of Nsp3 papain-like protease” (Biochemical Journal, 2021).
Structures can show the parent of a compound that is named as a salt. Where two headings read alike, the source gives them in different places. *1 amine or outer side, *2 acyl side, *3 side chain or, on linkers, in order; H or OH if unused. Where a SMILES comes first, the peptide text is derived from it. Bridges are numbered along the chain shown (N, C = ends). X1 = O=C(CCC[*:2])[*:1]

Assays:
[1] = molecular target: T1, SARS-CoV-2 PLpro (nsp3 1564–1878) (Severe acute respiratory syndrome coronavirus 2, UniProt P0DTD1); experiment: biochemical; design: FRET-quenched peptide (Pro3) cleavage by PLpro, 10 min pre-incubation, slope over 20 min, normalised to no-compound control; details: high concentration screen, read-out: % of control remaining
[2] = molecular target: T1, SARS-CoV-2 PLpro (nsp3 1564–1878); experiment: biochemical; design: FRET-quenched peptide (Pro3) cleavage by PLpro, 10 min pre-incubation, slope over 20 min, normalised to no-compound control; details: low concentration screen, read-out: % of control remaining

C[C@]1(C(=O)O)[C@@H]2CC[C@@H](O2)[C@@]1(C)C(=O)O [Cantharidic Acid]
remaining activity at 3.75 µM ([1]; Well no.=378): 88.7% | remaining activity at 1.25 µM ([2]; Well no.=378): 87.8%

C[C@@]12C(=O)OC(=O)[C@]1(C)[C@H]1CC[C@@H]2O1 [Cantharidin]
remaining activity at 3.75 µM ([1]; Well no.=42): 97.9% | remaining activity at 3.75 µM ([1]; Well no.=3129): 108% | remaining activity at 1.25 µM ([2]; Well no.=42): 94.6% | remaining activity at 1.25 µM ([2]; Well no.=3129): 107%

CC1=C(/C=C/C(C)=C/C=C/C(C)=C/C=C/C=C(C)/C=C/C=C(C)/C=C/C2=C(C)C(=O)CCC2(C)C)C(C)(C)CCC1=O [Canthaxanthin]
remaining activity at 3.75 µM ([1]; Well no.=1791): 104% | remaining activity at 3.75 µM ([1]; Well no.=4147): 100% | remaining activity at 1.25 µM ([2]; Well no.=1791): 105% | remaining activity at 1.25 µM ([2]; Well no.=4147): 93.8%

N#Cc1c(N)nc(SCc2csc(-c3ccc(Cl)cc3)n2)c(C#N)c1-c1ccc(OCCO)cc1 [Capadenoson]
remaining activity at 3.75 µM ([1]; Well no.=8649): 102% | remaining activity at 1.25 µM ([2]; Well no.=8649): 106%

CCCCCOC(=O)Nc1nc(=O)n([C@@H]2O[C@H](C)[C@@H](O)[C@H]2O)cc1F [Capecitabine]
remaining activity at 3.75 µM ([1]; Well no.=2290): 96.5% | remaining activity at 1.25 µM ([2]; Well no.=2290): 96.5%

CN1N=C2CCN(C(=O)[C@@H](COCc3ccccc3)NC(=O)C(C)(C)N)C[C@@]2(Cc2ccccc2)C1=O [Capromorelin (Tartrate)]
remaining activity at 3.75 µM ([1]; Well no.=7235): 102% | remaining activity at 1.25 µM ([2]; Well no.=7235): 96.9%

Oc1cc2c(cc1O)CN(C(=S)NCCc1ccc(Cl)cc1)CCC2 [Capsazepine]
remaining activity at 3.75 µM ([1]; Well no.=631): 99.5% | remaining activity at 1.25 µM ([2]; Well no.=631): 98.8%

C[C@H](CS)C(=O)N1CCC[C@H]1C(=O)O [Captopril]
remaining activity at 3.75 µM ([1]; Well no.=318): 97% | remaining activity at 3.75 µM ([1]; Well no.=1915): 100% | remaining activity at 3.75 µM ([1]; Well no.=4135): 98% | remaining activity at 3.75 µM ([1]; Well no.=7412): 106% | remaining activity at 1.25 µM ([2]; Well no.=318): 93.1% | remaining activity at 1.25 µM ([2]; Well no.=1915): 97.2% | remaining activity at 1.25 µM ([2]; Well no.=4135): 101% | remaining activity at 1.25 µM ([2]; Well no.=7412): 105%

C[N+](C)(C)CCOC(N)=O [Carbachol]
remaining activity at 3.75 µM ([1]; Well no.=32): 99% | remaining activity at 1.25 µM ([2]; Well no.=32): 95.6%

CCCCC[C@H](O)/C=C/[C@@H]1[C@H]2C/C(=C/CCCC(=O)O)C[C@H]2C[C@H]1O [Carbacyclin]
remaining activity at 3.75 µM ([1]; Well no.=4529): 95.8% | remaining activity at 1.25 µM ([2]; Well no.=4529): 91.4%

COC(=O)N/N=C/c1c[n+]([O-])c2ccccc2[n+]1[O-] [Carbadox]
remaining activity at 3.75 µM ([1]; Well no.=2211): 93.2% | remaining activity at 1.25 µM ([2]; Well no.=2211): 98.3%

NC(=O)N1c2ccccc2C=Cc2ccccc21 [Carbamazepine]
remaining activity at 3.75 µM ([1]; Well no.=270): 94.9% | remaining activity at 3.75 µM ([1]; Well no.=2215): 95.8% | remaining activity at 1.25 µM ([2]; Well no.=270): 96.8% | remaining activity at 1.25 µM ([2]; Well no.=2215): 97.8%

C[N+](C)(C)CCOC(N)=O [Carbamoylcholine (chloride)]
remaining activity at 3.75 µM ([1]; Well no.=6757): 97.3% | remaining activity at 1.25 µM ([2]; Well no.=6757): 99.9%

CC(C[N+](C)(C)C)OC(N)=O (stereo not drawn) [Carbamyl-beta-methylcholine]
remaining activity at 3.75 µM ([1]; Well no.=1736): 94.9% | remaining activity at 1.25 µM ([2]; Well no.=1736): 95.2%

C[N+](C)(C)CCOC(N)=O [Carbamylcholine]
remaining activity at 3.75 µM ([1]; Well no.=1734): 102% | remaining activity at 1.25 µM ([2]; Well no.=1734): 99.8%

CN1C2=CC(=O)/C(=N\NC(N)=O)C=C2CC1S(=O)(=O)O (centres unmarked) [Carbazochrome sodium sulfonate]
remaining activity at 3.75 µM ([1]; Well no.=5261): 95% | remaining activity at 1.25 µM ([2]; Well no.=5261): 96.5%

CC1(C)S[C@@H]2[C@H](NC(=O)C(C(=O)O)c3ccccc3)C(=O)N2[C@H]1C(=O)O (some centres unmarked) [Carbenicillin disodium]
remaining activity at 3.75 µM ([1]; Well no.=5030): 96.8% | remaining activity at 1.25 µM ([2]; Well no.=5030): 96.4%

CCN(CC)CCOCCOC(=O)C1(c2ccccc2)CCCC1 [Carbetapentane citrate]
remaining activity at 3.75 µM ([1]; Well no.=368): 92.5% | remaining activity at 1.25 µM ([2]; Well no.=368): 90.8%

CC[C@H](C)[C@@H]1NC(=O)[C@H](Cc2ccc(OC)cc2)NC(=O)CCCSC[C@@H](C(=O)N2CCC[C@H]2C(=O)N[C@@H](CC(C)C)C(=O)NCC(N)=O)NC(=O)[C@H](CC(N)=O)NC(=O)[C@H](CCC(N)=O)NC1=O [Carbetocin] (Y(Me)IQNCPLG-NH2; linker N-5 via X1)
remaining activity at 3.75 µM ([1]; Well no.=8293): 101% | remaining activity at 1.25 µM ([2]; Well no.=8293): 102%

CCOC(=O)n1ccn(C)c1=S [Carbimazole]
remaining activity at 3.75 µM ([1]; Well no.=5124): 105% | remaining activity at 1.25 µM ([2]; Well no.=5124): 104%

NC(=O)c1nnn(Cc2cc(Cl)c(C(=O)c3ccc(Cl)cc3)c(Cl)c2)c1N [Carboxyamidotriazole]
remaining activity at 3.75 µM ([1]; Well no.=5819): 89.8% | remaining activity at 1.25 µM ([2]; Well no.=5819): 94.7%

NCCC(=O)NCCc1c[nH]cn1 [Carcinine dihydrochloride]
remaining activity at 3.75 µM ([1]; Well no.=237): 97.8% | remaining activity at 1.25 µM ([2]; Well no.=237): 95.2%

COc1ccc(-c2nn3c(-c4ccccn4)nnc3s2)cc1OC [Cardionogen-2]
remaining activity at 3.75 µM ([1]; Well no.=5937): 99.4% | remaining activity at 1.25 µM ([2]; Well no.=5937): 102%

CC(C)C[C@H](NC(=O)[C@H](CCc1ccccc1)NC(=O)CN1CCOCC1)C(=O)N[C@@H](Cc1ccccc1)C(=O)N[C@@H](CC(C)C)C(=O)[C@@]1(C)CO1 [Carfilzomib (PR-171)]
remaining activity at 3.75 µM ([1]; Well no.=5173): 97.1% | remaining activity at 1.25 µM ([2]; Well no.=5173): 103%

NC(=O)N[C@@H](CCC(=O)O)C(=O)O [Carglumic Acid]
remaining activity at 3.75 µM ([1]; Well no.=7594): 102% | remaining activity at 1.25 µM ([2]; Well no.=7594): 99.7%

CN(C)C(=O)N[C@H]1CC[C@H](CCN2CCN(c3cccc(Cl)c3Cl)CC2)CC1 [Cariprazine (hydrochloride)]
remaining activity at 3.75 µM ([1]; Well no.=6661): 103% | remaining activity at 1.25 µM ([2]; Well no.=6661): 108%

CCCC(C)(COC(N)=O)COC(=O)NC(C)C (centres unmarked) [Carisoprodol]
remaining activity at 3.75 µM ([1]; Well no.=380): 95.3% | remaining activity at 1.25 µM ([2]; Well no.=380): 95.8%

Cc1c(C(=O)O)c(O)cc2c1C(=O)c1c(O)c([C@@H]3O[C@H](CO)[C@@H](O)[C@H](O)[C@H]3O)c(O)c(O)c1C2=O [Carminic acid]
remaining activity at 3.75 µM ([1]; Well no.=3101): 103% | remaining activity at 1.25 µM ([2]; Well no.=3101): 102%

O=NN(CCCl)C(=O)NCCCl [Carmustine]
remaining activity at 3.75 µM ([1]; Well no.=137): 102% | remaining activity at 1.25 µM ([2]; Well no.=137): 102%

CC(C)c1cc2c(c(O)c1O)[C@@]1(C(=O)O)CCCC(C)(C)[C@@H]1CC2 [Carnosic acid]
remaining activity at 3.75 µM ([1]; Well no.=4038): 104% | remaining activity at 1.25 µM ([2]; Well no.=4038): 101%

CC(C)(C)NCC(O)COc1cccc2c1CCC(=O)N2 (centres unmarked) [Carteolol (hydrochloride)]
remaining activity at 3.75 µM ([1]; Well no.=7623): 97.2% | remaining activity at 1.25 µM ([2]; Well no.=7623): 101%
